Laboratory results: ChEMBL document CHEMBL1201862, “PubChem BioAssay data set” (2004)
Active and inactive are the calls of the source.

Experiments:
[1] = target: Dual specificity tyrosine-phosphorylation-regulated kinase 4 (Homo sapiens, UniProt Q9NR20); format: functional
[2] = target: MAP/microtubule affinity-regulating kinase 3 (Homo sapiens, UniProt P27448); format: functional;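 also: MARK3 affinity measured as one member of a kinome panel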
[3] = target: Cell division cycle 7-related protein kinase (Homo sapiens, UniProt O00311); format: functional;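 also: value obtained from a kinome-wide kinase panel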
Cell division cycle 7-related protein kinase, sequence (O00311 whole entry): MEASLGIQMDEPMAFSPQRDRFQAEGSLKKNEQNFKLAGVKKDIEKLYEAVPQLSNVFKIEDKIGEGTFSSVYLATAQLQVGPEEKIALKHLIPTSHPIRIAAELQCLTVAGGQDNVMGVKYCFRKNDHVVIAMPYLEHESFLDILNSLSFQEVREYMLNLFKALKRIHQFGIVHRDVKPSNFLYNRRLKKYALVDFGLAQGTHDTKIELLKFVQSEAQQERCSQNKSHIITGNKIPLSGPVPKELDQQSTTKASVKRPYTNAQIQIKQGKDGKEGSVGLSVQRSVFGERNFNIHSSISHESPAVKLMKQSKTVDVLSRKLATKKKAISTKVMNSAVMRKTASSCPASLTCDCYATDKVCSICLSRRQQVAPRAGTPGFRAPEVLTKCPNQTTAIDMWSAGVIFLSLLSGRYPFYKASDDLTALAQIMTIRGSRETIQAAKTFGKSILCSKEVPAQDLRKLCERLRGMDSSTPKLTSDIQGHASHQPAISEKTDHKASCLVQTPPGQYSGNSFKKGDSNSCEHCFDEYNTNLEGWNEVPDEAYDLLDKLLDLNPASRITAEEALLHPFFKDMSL

[4] = target: Rho-associated protein kinase 2 (Homo sapiens, UniProt O75116); format: functional
Rho-associated protein kinase 2, sequence (O75116 whole entry): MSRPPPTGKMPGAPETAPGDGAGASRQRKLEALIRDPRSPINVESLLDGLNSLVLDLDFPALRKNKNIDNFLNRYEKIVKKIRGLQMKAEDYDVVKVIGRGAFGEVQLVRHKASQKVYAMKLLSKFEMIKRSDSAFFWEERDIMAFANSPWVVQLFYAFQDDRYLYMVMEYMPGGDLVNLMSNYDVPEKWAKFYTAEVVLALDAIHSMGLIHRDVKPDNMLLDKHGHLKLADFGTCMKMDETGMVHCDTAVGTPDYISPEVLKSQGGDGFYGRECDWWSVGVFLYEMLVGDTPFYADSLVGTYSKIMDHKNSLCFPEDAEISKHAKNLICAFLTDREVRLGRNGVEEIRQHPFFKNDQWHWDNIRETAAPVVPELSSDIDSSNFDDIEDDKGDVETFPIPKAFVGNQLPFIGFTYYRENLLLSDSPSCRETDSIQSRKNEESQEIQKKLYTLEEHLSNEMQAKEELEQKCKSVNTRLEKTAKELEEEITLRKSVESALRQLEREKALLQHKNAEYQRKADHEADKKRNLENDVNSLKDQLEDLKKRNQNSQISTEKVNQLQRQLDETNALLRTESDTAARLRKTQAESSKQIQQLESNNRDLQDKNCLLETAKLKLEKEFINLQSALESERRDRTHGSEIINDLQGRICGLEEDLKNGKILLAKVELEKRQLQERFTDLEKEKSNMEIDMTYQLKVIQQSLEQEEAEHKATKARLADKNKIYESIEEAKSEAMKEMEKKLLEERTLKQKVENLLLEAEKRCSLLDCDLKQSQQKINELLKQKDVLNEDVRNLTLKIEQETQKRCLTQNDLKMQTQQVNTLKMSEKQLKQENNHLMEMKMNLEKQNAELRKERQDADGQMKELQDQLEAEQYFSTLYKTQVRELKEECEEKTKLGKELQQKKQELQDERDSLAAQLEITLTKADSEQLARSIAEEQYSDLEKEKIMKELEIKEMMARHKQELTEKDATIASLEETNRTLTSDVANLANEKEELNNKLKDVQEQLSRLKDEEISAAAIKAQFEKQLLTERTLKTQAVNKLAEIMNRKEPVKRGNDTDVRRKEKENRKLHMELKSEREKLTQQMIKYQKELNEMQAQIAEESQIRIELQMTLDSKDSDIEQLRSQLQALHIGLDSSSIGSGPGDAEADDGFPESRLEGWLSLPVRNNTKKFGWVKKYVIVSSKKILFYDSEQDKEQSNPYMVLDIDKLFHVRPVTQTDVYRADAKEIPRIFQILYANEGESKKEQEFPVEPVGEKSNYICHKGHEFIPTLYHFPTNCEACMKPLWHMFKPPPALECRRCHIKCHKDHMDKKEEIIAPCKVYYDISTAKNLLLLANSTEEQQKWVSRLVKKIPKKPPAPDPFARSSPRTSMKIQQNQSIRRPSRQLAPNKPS

[5] = target: Proto-oncogene tyrosine-protein kinase Src (Homo sapiens, UniProt P12931); format: functional;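 also: SRC entry within a kinome-wide kinase profiling panel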
Proto-oncogene tyrosine-protein kinase Src, sequence (P12931 2-536 limits assumed): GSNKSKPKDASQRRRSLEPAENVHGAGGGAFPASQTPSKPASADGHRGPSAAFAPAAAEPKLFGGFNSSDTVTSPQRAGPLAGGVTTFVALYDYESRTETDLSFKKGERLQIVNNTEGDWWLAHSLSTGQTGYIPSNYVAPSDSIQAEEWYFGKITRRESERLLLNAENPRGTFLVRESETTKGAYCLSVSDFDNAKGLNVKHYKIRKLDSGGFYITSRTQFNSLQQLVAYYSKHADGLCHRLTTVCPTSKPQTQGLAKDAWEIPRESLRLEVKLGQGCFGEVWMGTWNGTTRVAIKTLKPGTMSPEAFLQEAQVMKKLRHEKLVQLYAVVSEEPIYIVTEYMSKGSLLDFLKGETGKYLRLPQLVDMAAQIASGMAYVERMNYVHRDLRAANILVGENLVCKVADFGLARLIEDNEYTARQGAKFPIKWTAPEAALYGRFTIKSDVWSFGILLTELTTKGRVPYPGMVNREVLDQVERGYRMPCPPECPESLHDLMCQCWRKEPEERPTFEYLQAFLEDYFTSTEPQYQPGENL

Caspase-7 = Caspase-7 (Homo sapiens, UniProt P55210); assay: caspase-7 enzyme inhibition, selectivity check – biochemical, DEVD-R110 fluorescence, cherry-pick, selectivity assay for caspase-6 inhibitor project, dose response (AID 743295); format: functional
Caspase-7, sequence (P55210 24-198 limits assumed): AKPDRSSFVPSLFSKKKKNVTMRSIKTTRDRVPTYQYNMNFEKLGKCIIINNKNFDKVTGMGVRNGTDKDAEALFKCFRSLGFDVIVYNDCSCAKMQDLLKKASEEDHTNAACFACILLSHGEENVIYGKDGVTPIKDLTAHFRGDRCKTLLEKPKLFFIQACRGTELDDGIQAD
Caspase-7, sequence (P55210 207-303 limits assumed): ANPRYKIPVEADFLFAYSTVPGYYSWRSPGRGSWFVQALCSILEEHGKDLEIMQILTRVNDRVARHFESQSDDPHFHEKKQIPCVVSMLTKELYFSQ

MAP/microtubule affinity-regulating kinase 3, sequence (P27448 whole entry): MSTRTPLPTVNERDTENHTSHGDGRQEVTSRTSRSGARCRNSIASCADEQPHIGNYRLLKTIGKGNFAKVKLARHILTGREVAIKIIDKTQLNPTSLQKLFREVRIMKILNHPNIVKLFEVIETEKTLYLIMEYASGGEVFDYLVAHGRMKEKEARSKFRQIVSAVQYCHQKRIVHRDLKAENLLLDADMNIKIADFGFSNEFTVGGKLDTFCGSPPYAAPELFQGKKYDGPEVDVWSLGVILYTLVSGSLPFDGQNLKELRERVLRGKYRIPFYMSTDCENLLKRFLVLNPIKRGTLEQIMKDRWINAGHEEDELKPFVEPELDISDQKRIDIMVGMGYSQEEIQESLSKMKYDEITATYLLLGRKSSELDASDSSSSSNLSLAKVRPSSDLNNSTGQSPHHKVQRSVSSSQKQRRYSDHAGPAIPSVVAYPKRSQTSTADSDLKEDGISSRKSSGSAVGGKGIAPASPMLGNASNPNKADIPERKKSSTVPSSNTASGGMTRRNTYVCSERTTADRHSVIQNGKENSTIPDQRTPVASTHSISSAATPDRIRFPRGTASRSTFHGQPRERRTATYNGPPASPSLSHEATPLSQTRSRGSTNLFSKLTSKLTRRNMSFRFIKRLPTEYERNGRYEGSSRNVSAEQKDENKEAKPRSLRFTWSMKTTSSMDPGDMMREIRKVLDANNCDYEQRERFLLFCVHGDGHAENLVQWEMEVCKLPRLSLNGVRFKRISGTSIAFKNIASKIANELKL
Dual specificity tyrosine-phosphorylation-regulated kinase 4, sequence (Q9NR20 whole entry): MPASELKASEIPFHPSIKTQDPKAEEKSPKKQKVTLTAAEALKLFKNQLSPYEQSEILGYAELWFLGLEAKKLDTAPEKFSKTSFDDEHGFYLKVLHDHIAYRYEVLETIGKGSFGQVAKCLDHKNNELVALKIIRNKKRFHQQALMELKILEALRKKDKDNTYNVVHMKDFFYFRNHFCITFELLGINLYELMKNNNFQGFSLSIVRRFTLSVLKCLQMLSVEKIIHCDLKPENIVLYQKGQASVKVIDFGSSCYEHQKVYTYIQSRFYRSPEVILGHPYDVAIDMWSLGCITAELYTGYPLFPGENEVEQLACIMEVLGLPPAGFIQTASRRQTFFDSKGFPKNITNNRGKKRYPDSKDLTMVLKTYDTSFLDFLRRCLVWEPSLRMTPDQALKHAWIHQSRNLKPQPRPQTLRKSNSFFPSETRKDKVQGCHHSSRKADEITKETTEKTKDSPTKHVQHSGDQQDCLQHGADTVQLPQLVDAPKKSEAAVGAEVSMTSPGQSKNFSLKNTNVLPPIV

SMILES | Ki [1] | pKi [1] | Ki [2] | pKi [2] | Ki [3] | pKi [3] | Ki [4] | Ki [5] | AC50 (Caspase-7)
OC1CCC(Nc2nc(Cl)cc(-c3c[nH]c4ncccc34)n2)CC1 (centres undefined) | 3160 nM (active) | 5.5 | 50.1 nM (active) | 7.3 | 0.158 nM (active) | 9.8 | > 3.98 nM (inactive) | > 2000 nM (inactive) | 
CCN(CC)CCCC(C)n1c2nc(=O)[nH]c(=O)c-2nc2cc(Cl)ccc21 (centres undefined) |  |  |  |  |  |  |  |  | 899 nM (active)
